The target in one test is T1, LRRK2 G2019S (Homo sapiens, UniProt Q5S007, G2019S).
T1 construct: purchased Life Technologies PV4881
The test is described as follows: LRRK2 Kinase Activity Assay (LanthaScreen TR-FRET), G2019S. The format is biochemical. As to conditions: recombinant G2019S-LRRK2, 25 μM ATP, 400 nM LRRKtide, 60 min; class symbols. The procedure: LRRK2 kinase activity was measured using a LanthaScreen™ Kinase Activity Assay from ThermoFisher Scientific. Recombinant wild type or G2019S-LRRK2 protein (Life Technologies, PR8604B or PV4881, respectively), was incubated with a fluorescein-labeled peptide substrate called LRRKtide that is based upon ezrin/radixin/moesin (ERM) (Life Technologies, PV4901) in the presence of ATP and serially diluted compound. […] Compound-dependent inhibition of the TR-FRET signal was used to generate a concentration-response curve for IC50 determination.
After 60 min incubation at room temperature, the reaction was stopped by addition of 10 μL of 2×stop solution containing a final concentration of 2 nM anti-pERM antibody and 10 mM EDTA.

In the next test the target is T2, LRRK2 WT (Homo sapiens, UniProt Q5S007).
T2 construct: purchased Life Technologies PR8604B
The test is described as follows: LRRK2 Kinase Activity Assay (LanthaScreen TR-FRET), wild type. It is filed as biochemical. As to conditions: recombinant wild type LRRK2, 25 μM ATP, 400 nM LRRKtide, 60 min; class symbols. The method in brief: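 IC50 fitted to the compound-dependent loss of TR-FRET signal. Each kinase form, wild type or G2019S, phosphorylated the fluorescein-tagged ERM-derived LRRKtide in the presence of ATP and compound dilutions over 60 min at room temperature; quench contained 10 mM EDTA and 2 nM anti-pERM antibody (final).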

Consider 26 compounds from US20230148214A1, “INDAZOLES AND AZAINDAZOLES AS LRRK2 INHIBITORS” (ESCAPE Bio, Inc., priority 2020, published 2023).

T2 sequence (Q5S007 whole entry): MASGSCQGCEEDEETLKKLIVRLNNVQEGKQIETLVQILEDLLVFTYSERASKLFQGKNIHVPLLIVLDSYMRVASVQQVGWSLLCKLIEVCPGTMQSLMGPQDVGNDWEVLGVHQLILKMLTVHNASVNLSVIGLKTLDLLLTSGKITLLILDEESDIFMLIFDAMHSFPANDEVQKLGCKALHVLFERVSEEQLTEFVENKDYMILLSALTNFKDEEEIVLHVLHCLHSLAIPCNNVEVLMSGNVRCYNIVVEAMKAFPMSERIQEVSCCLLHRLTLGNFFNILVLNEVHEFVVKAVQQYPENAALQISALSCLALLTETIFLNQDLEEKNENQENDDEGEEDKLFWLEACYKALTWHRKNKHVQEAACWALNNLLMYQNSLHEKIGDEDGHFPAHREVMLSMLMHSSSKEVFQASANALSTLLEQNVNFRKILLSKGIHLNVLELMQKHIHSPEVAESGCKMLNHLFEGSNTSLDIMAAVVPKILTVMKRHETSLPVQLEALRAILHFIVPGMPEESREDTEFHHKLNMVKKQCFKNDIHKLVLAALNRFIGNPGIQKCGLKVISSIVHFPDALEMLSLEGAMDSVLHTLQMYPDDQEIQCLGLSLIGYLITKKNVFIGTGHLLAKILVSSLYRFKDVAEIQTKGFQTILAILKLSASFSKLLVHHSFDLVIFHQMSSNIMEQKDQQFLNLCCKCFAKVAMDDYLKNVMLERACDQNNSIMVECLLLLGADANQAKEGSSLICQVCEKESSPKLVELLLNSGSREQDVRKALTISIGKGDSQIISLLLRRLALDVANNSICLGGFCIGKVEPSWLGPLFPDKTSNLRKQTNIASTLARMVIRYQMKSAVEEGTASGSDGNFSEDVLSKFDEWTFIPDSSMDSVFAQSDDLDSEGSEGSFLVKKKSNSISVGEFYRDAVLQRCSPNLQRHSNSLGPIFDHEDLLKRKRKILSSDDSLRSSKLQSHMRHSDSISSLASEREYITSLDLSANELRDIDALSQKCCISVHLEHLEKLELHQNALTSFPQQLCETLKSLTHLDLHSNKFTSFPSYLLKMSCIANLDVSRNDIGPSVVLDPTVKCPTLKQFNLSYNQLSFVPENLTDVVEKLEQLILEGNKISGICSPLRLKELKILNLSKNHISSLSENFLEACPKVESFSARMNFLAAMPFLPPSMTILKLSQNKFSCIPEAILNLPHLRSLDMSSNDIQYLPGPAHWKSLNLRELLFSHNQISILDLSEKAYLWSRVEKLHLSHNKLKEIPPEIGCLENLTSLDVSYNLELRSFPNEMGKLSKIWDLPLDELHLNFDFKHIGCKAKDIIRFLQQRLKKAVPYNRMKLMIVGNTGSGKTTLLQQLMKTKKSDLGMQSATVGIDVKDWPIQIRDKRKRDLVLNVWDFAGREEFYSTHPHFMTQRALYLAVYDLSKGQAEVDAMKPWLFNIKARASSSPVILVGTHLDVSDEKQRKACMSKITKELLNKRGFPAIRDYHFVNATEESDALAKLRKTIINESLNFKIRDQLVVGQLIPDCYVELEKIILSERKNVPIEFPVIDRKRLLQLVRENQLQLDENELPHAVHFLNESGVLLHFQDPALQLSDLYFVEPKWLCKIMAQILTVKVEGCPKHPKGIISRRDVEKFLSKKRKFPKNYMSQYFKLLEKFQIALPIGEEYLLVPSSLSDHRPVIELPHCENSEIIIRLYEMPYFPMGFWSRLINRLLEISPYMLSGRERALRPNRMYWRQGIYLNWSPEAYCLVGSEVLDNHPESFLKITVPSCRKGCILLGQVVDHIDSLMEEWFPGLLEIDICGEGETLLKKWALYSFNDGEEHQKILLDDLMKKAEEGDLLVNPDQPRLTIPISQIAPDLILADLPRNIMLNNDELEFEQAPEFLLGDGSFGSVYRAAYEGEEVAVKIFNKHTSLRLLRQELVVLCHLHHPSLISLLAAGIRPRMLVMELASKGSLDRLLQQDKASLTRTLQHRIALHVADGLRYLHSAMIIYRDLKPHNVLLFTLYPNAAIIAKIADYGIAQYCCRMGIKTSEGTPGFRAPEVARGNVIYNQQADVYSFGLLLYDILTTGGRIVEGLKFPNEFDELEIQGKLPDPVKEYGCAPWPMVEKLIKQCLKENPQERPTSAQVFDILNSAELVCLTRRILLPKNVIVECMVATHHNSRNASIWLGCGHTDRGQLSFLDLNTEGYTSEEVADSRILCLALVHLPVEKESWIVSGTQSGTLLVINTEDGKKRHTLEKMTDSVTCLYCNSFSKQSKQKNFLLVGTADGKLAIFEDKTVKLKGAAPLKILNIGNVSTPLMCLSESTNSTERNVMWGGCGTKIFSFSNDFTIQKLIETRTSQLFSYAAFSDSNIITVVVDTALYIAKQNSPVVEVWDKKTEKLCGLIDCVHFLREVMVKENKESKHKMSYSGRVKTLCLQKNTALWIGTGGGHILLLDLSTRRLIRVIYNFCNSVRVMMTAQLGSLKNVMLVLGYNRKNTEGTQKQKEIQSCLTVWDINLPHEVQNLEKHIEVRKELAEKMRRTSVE
T1 sequence (Q5S007 whole entry G2019S): as the sequence (Q5S007 whole entry) above, with G2019S counted along it

In the case of `Cc1c(C#N)c(Cl)nc2c1CCC[C@@H]2Oc1ccc2[nH]nc(C3CC3)c2c1` (single isomer, unassigned) [184, enantiomer 1, 2-Chloro-8-[(3-cyclopropyl-1H-indazol-5-yl)oxy]-4-methyl-5,6,7,8-tetrahydroquinoline-3-carbonitrile], the IC50 at LRRK2 G2019S and on LRRK2 WT was below 100 nM each time.
Consider `Cc1c(C#N)c(Cl)nc2c1CCC[C@@H]2Oc1ccc2[nH]nc(C3CC3)c2c1` (single isomer, unassigned) [184, enantiomer 2, 2-Chloro-8-[(3-cyclopropyl-1H-indazol-5-yl)oxy]-4-methyl-5,6,7,8-tetrahydroquinoline-3-carbonitrile], for which the half-inhibitory concentration (IC50) is below 100 nM on LRRK2 G2019S and 1000 to 10000 nM at LRRK2 WT.
As for `COc1n[nH]c2ccc(O[C@H]3CCc4cc(C#N)c(Cl)nc43)cc12` (single isomer, unassigned) [185, enantiomer 1, 2-Chloro-7-[(3-methoxy-1H-indazol-5-yl)oxy]-6,7-dihydro-5H-cyclopenta[b]pyridine-3-carbonitrile], the concentration for half-maximal inhibition (IC50) on LRRK2 G2019S and on LRRK2 WT was below 100 nM throughout.
With `COc1n[nH]c2ccc(O[C@H]3CCc4cc(C#N)c(Cl)nc43)cc12` (single isomer, unassigned) [185, enantiomer 2, 2-Chloro-7-[(3-methoxy-1H-indazol-5-yl)oxy]-6,7-dihydro-5H-cyclopenta[b]pyridine-3-carbonitrile], the 50% inhibitory concentration (IC50) lay in the range of 100 to 1000 nM on LRRK2 G2019S and 1000 to 10000 nM at LRRK2 WT.
In the case of `COc1n[nH]c2ccc(O[C@H]3CCCc4cc(C#N)c(Cl)nc43)cc12` (single isomer, unassigned) [186, enantiomer 1, 2-Chloro-8-[(3-methoxy-1H-indazol-5-yl)oxy]-5,6,7,8-tetrahydroquinoline-3-carbonitrile], the 50% inhibitory concentration (IC50) on LRRK2 G2019S and on LRRK2 WT was below 100 nM each time.
`COc1n[nH]c2ccc(O[C@H]3CCCc4cc(C#N)c(Cl)nc43)cc12` (single isomer, unassigned) [186, enantiomer 2, 2-Chloro-8-[(3-methoxy-1H-indazol-5-yl)oxy]-5,6,7,8-tetrahydroquinoline-3-carbonitrile]: the concentration for half-maximal inhibition (IC50) on LRRK2 G2019S lay within 100 to 1000 nM; at LRRK2 WT, 1000 to 10000 nM.
On to `COc1n[nH]c2ccc(O[C@H]3CCc4cc(C#N)c(Br)nc43)cc12` (single isomer, unassigned) [187, enantiomer 1, 2-Bromo-7-[(3-methoxy-1H-indazol-5-yl)oxy]-6,7-dihydro-5H-cyclopenta[b]pyridine-3-carbonitrile], for which the IC50 on LRRK2 G2019S and on LRRK2 WT was below 100 nM each time.
In the case of `COc1n[nH]c2ccc(O[C@H]3CCc4cc(C#N)c(Br)nc43)cc12` (single isomer, unassigned) [187, enantiomer 2, 2-Bromo-7-[(3-methoxy-1H-indazol-5-yl)oxy]-6,7-dihydro-5H-cyclopenta[b]pyridine-3-carbonitrile], the IC50 at LRRK2 G2019S and at LRRK2 WT was 100 to 1000 nM each time.
As for `COc1n[nH]c2ccc(O[C@H]3CCCc4cc(C#N)c(Br)nc43)cc12` (single isomer, unassigned) [188, enantiomer 1, 2-Bromo-8-[(3-methoxy-1H-indazol-5-yl)oxy]-5,6,7,8-tetrahydroquinoline-3-carbonitrile], the half-inhibitory concentration (IC50) on LRRK2 G2019S and at LRRK2 WT was below 100 nM in each case.
On to `COc1n[nH]c2ccc(O[C@H]3CCCc4cc(C#N)c(Br)nc43)cc12` (single isomer, unassigned) [188, enantiomer 2, 2-Bromo-8-[(3-methoxy-1H-indazol-5-yl)oxy]-5,6,7,8-tetrahydroquinoline-3-carbonitrile], for which the IC50 at LRRK2 G2019S fell in the range of 100 to 1000 nM; on LRRK2 WT, 1000 to 10000 nM.
`COc1n[nH]c2ccc(O[C@H]3CCc4cc(C#N)c(Cl)cc43)cc12` (single isomer, unassigned) [189, enantiomer 1, 6-Chloro-1-[(3-methoxy-1H-indazol-5-yl)oxy]-2,3-dihydro-1H-indene-5-carbonitrile]: the IC50 on LRRK2 G2019S is 100 to 1000 nM; at LRRK2 WT, 1000 to 10000 nM.
Take `COc1n[nH]c2ccc(O[C@H]3CCc4cc(C#N)c(Cl)cc43)cc12` (single isomer, unassigned) [189, enantiomer 2, 6-Chloro-1-[(3-methoxy-1H-indazol-5-yl)oxy]-2,3-dihydro-1H-indene-5-carbonitrile]: the half-maximal inhibitory concentration (IC50) on LRRK2 G2019S was below 100 nM; at LRRK2 WT, 100 to 1000 nM.
As to `Cc1cc2[nH]nc(-c3cnco3)c2cc1NC1CCCc2cc(C#N)cnc21` (single isomer, unassigned) [190, enantiomer 1, 8-[[6-Methyl-3-(1,3-oxazol-5-yl)-1H-indazol-5-yl]amino]-5,6,7,8-tetrahydroquinoline-3-carbonitrile], the 50% inhibitory concentration (IC50) at LRRK2 G2019S and at LRRK2 WT was below 100 nM in each case.
On to `N#Cc1ccc2c(c1)OCC[C@@H]2Nc1ccc2[nH]nc(-c3cnco3)c2c1` (single isomer, unassigned) [191, enantiomer 1, 4-((3-(oxazol-5-yl)-1H-indazol-5-yl)amino)chromane-7-carbonitrile], for which the results for the IC50 on LRRK2 G2019S and on LRRK2 WT were below 100 nM and 100 to 1000 nM, respectively.
`N#Cc1ccc2c(c1)OCC[C@@H]2Nc1ccc2[nH]nc(-c3cnco3)c2c1` (single isomer, unassigned) [191, enantiomer 2, 4-{[3-(1,3-oxazol-5-yl)-1H-indazol-5-yl]amino}-3,4-dihydro-2H-1-benzopyran-7-carbonitrile]: the concentration for half-maximal inhibition (IC50) at LRRK2 G2019S and on LRRK2 WT was below 100 nM in each case.
`N#Cc1ccc2c(c1)OCC[C@@H]2Nc1ccc2[nH]nc(-c3cnoc3)c2c1` (single isomer, unassigned) [192, enantiomer 1, 4-((3-(Isoxazol-4-yl)-1H-indazol-5-yl)amino)chromane-7-carbonitrile]: the concentration for half-maximal inhibition (IC50) on LRRK2 G2019S and on LRRK2 WT was 100 to 1000 nM in each case.
For `N#Cc1ccc2c(c1)OCC[C@@H]2Nc1ccc2[nH]nc(-c3cnoc3)c2c1` (single isomer, unassigned) [192, enantiomer 2, 4-((3-(Isoxazol-4-yl)-1H-indazol-5-yl)amino)chromane-7-carbonitrile], the IC50 at LRRK2 G2019S and on LRRK2 WT was below 100 nM in each case.
Take `N#Cc1ccc2c(c1)OCC[C@@H]2Nc1ccc2[nH]nc(I)c2c1` (single isomer, unassigned) [193, enantiomer 1, 4-((3-Iodo-1H-indazol-5-yl)amino)chromane-7-carbonitrile]: the IC50 was 100 to 1000 nM on LRRK2 G2019S and 1000 to 10000 nM on LRRK2 WT.
`N#Cc1ccc2c(c1)OCC[C@@H]2Nc1ccc2[nH]nc(I)c2c1` (single isomer, unassigned) [193, enantiomer 2, 4-((3-Iodo-1H-indazol-5-yl)amino)chromane-7-carbonitrile]: the half-inhibitory concentration (IC50) on LRRK2 G2019S and on LRRK2 WT was below 100 nM in each case.
As to `N#Cc1cnc2c(c1)OCC[C@@H]2Nc1ccc2[nH]nc(-c3cnco3)c2c1` (single isomer, unassigned) [194, enantiomer 1, 4-((3-(Oxazol-5-yl)-1H-indazol-5-yl)amino)-3,4-dihydro-2H-pyrano[3,2-b]pyridine-7-carbonitrile], the IC50 on LRRK2 G2019S and on LRRK2 WT was below 100 nM throughout.
For the compound `N#Cc1cnc2c(c1)OCC[C@@H]2Nc1ccc2[nH]nc(-c3cnco3)c2c1` (single isomer, unassigned) [194, enantiomer 2, 4-((3-(Oxazol-5-yl)-1H-indazol-5-yl)amino)-3,4-dihydro-2H-pyrano[3,2-b]pyridine-7-carbonitrile], the concentration for half-maximal inhibition (IC50) at LRRK2 G2019S and at LRRK2 WT was 100 to 1000 nM in each case.
Take `Cc1n[nH]c2ccc(O[C@H]3CCc4cc(C#N)ccc43)cc12` (single isomer, unassigned) [Example 1, enantiomer 1, 1-((3-Methyl-1H-indazol-5-yl)oxy)-2,3-dihydro-1H-indene-5-carbonitrile]: the results for the half-maximal inhibitory concentration (IC50) on LRRK2 G2019S and at LRRK2 WT were below 100 nM and 100 to 1000 nM, respectively.
With `Cc1n[nH]c2ccc(O[C@H]3CCc4cc(C#N)ccc43)cc12` (single isomer, unassigned) [Example 1, enantiomer 2, 1-((3-Methyl-1H-indazol-5-yl)oxy)-2,3-dihydro-1H-indene-5-carbonitrile], the IC50 is below 100 nM on LRRK2 G2019S and 100 to 1000 nM at LRRK2 WT.
For the compound `N#Cc1cnc2c(c1)CCC[C@@H]2Oc1ccc2[nH]nc(-c3cnoc3)c2c1` (single isomer, unassigned) [Example 2, enantiomer 1, 8-((3-(Isoxazol-4-yl)-1H-indazol-5-yl)oxy)-5,6,7,8-tetrahydroquinoline-3-carbonitrile], the IC50 on LRRK2 G2019S and on LRRK2 WT was below 100 nM in each case.
Regarding `N#Cc1ccc2c(c1)CCC2Oc1ccc2[nH]nc(-c3cnco3)c2c1` (single isomer, unassigned) [Example 3, enantiomer 1, 1-((3-(Oxazol-5-yl)-1H-indazol-5-yl)oxy)-2,3-dihydro-1H-indene-5-carbonitrile], the IC50 on LRRK2 G2019S and on LRRK2 WT was below 100 nM in each case.
In the case of `N#Cc1ccc2c(c1)CC[C@@H]2Oc1ccc2[nH]nc(-c3cnn(C(F)F)c3)c2c1` (single isomer, unassigned) [Example 4, enantiomer 1, 1-((3-(1-(Difluoromethyl)-1H-pyrazol-4-yl)-1H-indazol-5-yl)oxy)-2,3-dihydro-1H-indene-5-carbonitrile], the concentration for half-maximal inhibition (IC50) at LRRK2 G2019S was below 100 nM; at LRRK2 WT it was 100 to 1000 nM.
